Test results published in US11591404B2, “Treatment of cancer using a CD123 chimeric antigen receptor” (Novartis AG, priority 2014, dated 2023).
Entries after “also recorded” stand apart in the source; their conditions may differ.

Columns and labels:
[1] = tested on: CAR-expressing, transduced T cells; test: Proliferation of CARTs co-cultured with Nalm-6 cells in the presence of RAD001, 4 days; format: cell-based; conditions: low doses of RAD001, cell culture, 4 days of co-culture
Procedure: CARTs were co-cultured with Nalm-6 cells in the presence of different concentrations of RAD001. The number of CAR-positive CD3-positive T cells (black) and total T cells (gray) was assessed after 4 days of co-culture.

[2] = PK analysis of RAD001 in tumor bearing mice; format: in vivo, NSG mice
Procedure: (§1) RAD001 dosing: A concentrated micro-emulsion of 50 mg equal to 1 mg RAD001 was formulated and then resuspended in D5W (dextrose 5% in water) at the time of dosing. Mice were orally dosed daily (via oral gavage) with 200 μl of the desired doses of RAD001.
PK analysis: Mice were dosed daily with RAD001 starting 7 days post tumor implantation. Dosing groups were as follows: 0.3 mg/kg, 1 mg/kg, 3 mg/kg, and 10 mg/kg. Mice were bled on days 0 and 14 following the first and last dose of RAD001, at the following time points for PK analysis: 15 minutes, 30 minutes, 1 hour, 2 hours, 4 hours, 8 hours, 12 hours, and 24 hours.

[3] = tested on: huCART19 cells cultured with Nalm-6; test: CART proliferation in 4 day co-culture with RAD001; format: cell-based, human; conditions: 0.0032 and 0.016 nM RAD001
Procedure: To evaluate the functionality of CARTs, the T cells are thawed and counted, and viability is assessed by Cellometer. The number of CAR-positive cells in each culture is normalized using non-transduced T cells (UTD). The impact of RAD001 on CARTs was tested in titrations with RAD001, starting at 50 nM. The target cell line used in all co-culture experiments is Nalm-6, a human pre-B cell acute lymphoblastic leukemia (ALL) cell line expressing CD19 and transduced to express luciferase.
For measuring the proliferation of CARTs, T cells are cultured with target cells at a ratio of 1:1. The assay is run for 4 days, when cells are stained for CD3, CD4, CD8 and CAR expression. The number of T cells is assessed by flow cytometry using counting beads as reference.

[4] = tested on: huCAR19 CAR T cells; test: CAR T cell expansion in vivo with RAD001 (FACS); design: species or system NSG mice; conditions: lowest doses of RAD001
Procedure: CAR T cell dosing: Mice were administered 5×10^6 CAR T cells 7 days after tumor implantation. Cells were partially thawed in a 37 degree Celsius water bath and then completely thawed by the addition of 1 ml of cold sterile PBS to the tube containing the cells. The thawed cells were transferred to a 15 ml falcon tube and adjusted to a final volume of 10 mls with PBS. The cells were washed twice at 1000 rpm for 10 minutes each time and then counted on a hemocytometer. T cells were then resuspended at a concentration of 50×10^6 CAR T cells per ml of cold PBS and kept on ice until the mice were dosed. The mice were injected intravenously via the tail vein with 100 μl of the CAR T cells for a dose of 5×10^6 CAR T cells per mouse. Eight mice per group were treated either with 100 μl of PBS alone (PBS), or humanized CD19 CAR T cells.
as §1
Based on these doses, huCAR19 CAR T cells were dosed with and without RAD001 to determine the proliferative ability of these cells. The highest dose used was 3 mg/kg based on the levels of RAD001 in the blood 24 hours after dosing. […] Mice were monitored via FACS for T cell expansion.

[5] = tested on: NALM6-luc tumors; test: NALM6-luc tumor growth under daily oral RAD001; format: in vivo, NSG mice; conditions: daily oral dosing of RAD001 alone
Procedure: NALM6-luc cells: The NALM6 human acute lymphoblastic leukemia (ALL) cell line was developed from the peripheral blood of a patient with relapsed ALL. The cells were then tagged with firefly luciferase. These suspension cells grow in RPMI supplemented with 10% heat inactivated fetal bovine serum.
Mice: 6 week old NSG (NOD.Cg-Prkdc^scidIl2rg^tmIWjl/SzJ) mice were received from the Jackson Laboratory (stock number 005557).
Tumor implantation: NALM6-luc cells were grown and expanded in vitro in RPMI supplemented with 10% heat inactivated fetal bovine serum. The cells were then transferred to a 15 ml conical tube and washed twice with cold sterile PBS. NALM6-luc cells were then counted and resuspended at a concentration of 10×10^6 cells per milliliter of PBS. The cells were placed on ice and immediately (within one hour) implanted in the mice. NALM6-luc cells were injected intravenously via the tail vein in a 100 μl volume, for a total of 1×10^6 cells per mouse.
as §1

[6] = tested on: humanized CD19 CART cells; test: In vivo proliferation of humanized CD19 CART cells with and without RAD001 dosing; conditions: RAD001 0.003 mg/kg daily with huCTL019
Procedure: Circles denote PBS; squares denote huCTL019; triangles denote huCTL019 with 3 mg/kg RAD001; inverted triangles denote huCTL019 with 0.3 mg/kg RAD001; diamonds denote huCTL019 with 0.03 mg/kg RAD001; and circles denote huCTL019 with 0.003 mg/kg RAD001.

[7] = tested on: CART123 P2A CD20 cells; test: Rituximab complement dependent cytotoxicity (15% rabbit complement); format: cell-based
Procedure: The mechanism by which the CART123P2ACD20 cell depletion is mediated was investigated. CART123 P2A CD20 cells were incubated with rituximab at different concentrations 0 μg/ml, 1 μg/ml, 10 μg/ml and 100 μg/ml, in the presence of 15% rabbit complement. […] CART123 P2A CD20 cell depletion is mediated by complement dependent cytotoxicity.

[8] = tested on: luciferase-expressing human AML cell lines (MOLM14, MOLM13, U937) or primary AML specimens; test: Human AML xenograft models, T cell termination strategies; format: in vivo, mice; conditions: for elimination of CD123-redirected CAR T cells: alemtuzumab 1 or 5 mg/kg IP, rituximab 10 mg/kg IP; for AML proliferation, antibody alone: non-CART123-treated xenograft models vs AML-only controls
Source text: Three termination strategies in human AML xenograft models were examined: (1) T cell ablation with the anti-CD52 antibody alemtuzumab after treatment with 1×10^5-1×10^6 T cells lentivirally-transduced with anti-CD123-41BB-CD3zeta CART123, (2) T cell ablation with the anti-CD20 antibody rituximab after treatment with 1×10^5-1×10^6 CART123 engineered to co-express CD20 (CART123/CD20), and (3) treatment with “biodegradable” anti-CD123 mRNA-electroporated CAR T cells (RNA-CART123). Mice engrafted with luciferase-expressing human AML cell lines (MOLM14, MOLM13, U937) or primary AML specimens (n=3) were treated with CD123-redirected CAR T cells as above. The CD123 CAR construct utilized for this experiment is the 1172 construct (SEQ ID NO: 707), and were administered to the mice at week 1. For T cell depletion studies, alemtuzumab 1 or 5 mg/kg was injected intraperitoneally (IP) at week 2, week 3, or week 4 (e.g., 1, 2, or 3 weeks post-CART123) to determine optimal dosing and timing of T cell ablation. In subsequent studies, rituximab 10 mg/kg was injected IP 4 weeks after CART123/CD20, or 1×10^7 RNA-CART123 was injected intravenously at 5, 9, and 16 days after AML engraftment. Mice were followed by weekly bioluminescent imaging and/or quantitative flow cytometry analyses of blood, spleen, and/or bone marrow.

[9] = tested on: CART123P2A CD20 cells; test: Rituximab-mediated cytotoxicity, T cell depletion; format: cell-based; conditions: 100 ug/ml, 48 hours of incubation
Procedure: Rituximab-mediated cytotoxicity was next assessed for the CART123 P2A CD20 cells. CART123 and CART123 P2A CD20 were incubated with Rituximab at various concentrations, 0 μg/ml, 1 μg/ml, 10 μg/ml and 100 μg/ml. Cells were harvested at 0, 4, 12, and 48 hours, and stained for CD3. The percentage of T cell depletion was computed.

[10] = tested on: AML290 cells; test: Pediatric patient-derived xenograft model; format: in vivo, mice
Procedure: Alemtuzumab treatment was also examined in a second in vivo model, a pediatric patient-derived xenograft model. In this model, mice were injected with AML290 cells. Six weeks after AML engraftment, the mice were administered saline, untransduced T cells, or CART123 cells (represented at week 0). Alemtuzumab was administered at 5 mg/kg to a subset of the mice receiving CART123 cells at week 4. […] Analysis of AML present in different organs of the xenografts after CART123 dosing was determined by flow cytometry.

[11] = tested on: r/r B-ALL; conditions: cited from earlier work

Compound: CO[C@H]1C[C@@H]2CC[C@@H](C)[C@@](O)(O2)C(=O)C(=O)N2CCCC[C@H]2C(=O)O[C@H]([C@H](C)C[C@@H]2CC[C@@H](OCCO)[C@H](OC)C2)CC(=O)[C@H](C)/C=C(\C)[C@@H](O)[C@@H](OC)C(=O)[C@H](C)C[C@H](C)/C=C/C=C/C=C/1C [RAD001, (1R,9S,12S,15R,16E,18R,19R,21R,23 S,24E,26E,28E,30S,32S,35R)-1,18-dihydroxy-12-{(1R)-2-[(1S,3R,4R)-4-(2-hydroxyethoxy)-3-methoxycyclohexyl]-1-methylethyl}-19,30-dimethoxy-15,17,21,23,29,35-hexamethyl-11,36-dioxa-4-aza-tricyclo[30.3.1.04,9]hexatriaconta-16,24,26,28-tetraene-2,3,10,14,20-pentaone]
- proliferation of CAR-expressing, transduced T cells [1]: enhanced
- concentration of RAD001 ([2]; 24 hours after the final dose): above 10 nM
- concentration at 24 h ([2]; NSG, mouse, blood, oral, 24 hours after dosing, 0.3 mg/kg, day 0 and day 14, read-out: RAD001 concentrations in the blood): > 0.01 µM
- stability in the blood ([2]; tumor bearing mice): fairly stable in the blood
- proliferation of huCART19 cells [3]: proliferation was higher than observed without the addition of RAD001
- proliferation of the CAR T cells in vivo [4]: enhanced proliferation of the CAR T cells
- growth of NALM6-luc tumors [5]: did not have an impact on the growth of NALM6-luc tumors
- CART cell proliferation in vivo [6]: enhancement in CART cell proliferation

Compound: Rituximab: anti-CD20 antibody
- cell depletion with complement ([7]; Rituximab 100 ug/ml): depletion of the majority of CART123 P2A CD20 cells after 4 hours of incubation
- cell depletion with complement ([7]; rituximab 1 ug/ml or 10 ug/ml): depletion of the majority of CART123 P2A CD20 cells after 12 hours of incubation
- elimination of CD123-redirected CAR T cells [8]: rapidly eliminated T cells while preserving leukemia remission; also recorded: completely eliminated CD123-redirected CAR T cells
- AML proliferation, antibody alone [8]: did not inhibit AML proliferation
- T cell depletion [9]: direct cytotoxicity

Compound: alemtuzumab: anti-CD52 antibody
- AML cells in spleen and bone marrow (flow cytometry) ([10]; AML290): sustained ablation of AML cells in the spleen
- tumor progression / remission ([10]; AML290): remained in remission
- elimination of CART123 T cells in the peripheral blood ([10]; alemtuzumab 5 mg/kg at week 4): completely eliminate CART123 T cells in the peripheral blood
- elimination of CD123-redirected CAR T cells [8]: rapidly eliminated CART123 cells
- elimination of CD123-redirected CAR T cells ([8]; listed as Alemtuzumab): completely eliminated CD123-redirected CAR T cells
- overall survival by timing of ablation ([8]; alemtuzumab at week 3 or week 4 vs week 2): improved survival
- AML proliferation, antibody alone [8]: did not inhibit AML proliferation

Compound: blinatumomab: bi-specific anti-CD19/CD3 antibody
- share of relapses that are CD19-negative [11]: about 30%
